Reference: publication PMC9443684 (RSC Advances, 2022)

Legend:
[1] = test system: MCF-7 cancer cell line; assay: MTT assay, anticancer activity against MCF-7; assay type: cell-based; conditions: Homo sapiens; for inhibition at 10 µM: MCF7, read-out: Cell growth inhibition (GI%); for IC50: MCF7, 48 h, read-out: Anticancer activity IC50
[2] = test system: HCT-116 cancer cell line; assay: MTT assay, anticancer activity against HCT-116; assay type: cell-based; conditions: Homo sapiens; for inhibition at 10 µM: HCT-116, read-out: Cell growth inhibition (GI%); for IC50: HCT-116, 48 h, read-out: Anticancer activity IC50
[3] = test system: HepG2 cancer cell line; assay: MTT assay, anticancer activity against HepG2; assay type: cell-based; conditions: Homo sapiens; for inhibition at 10 µM: HepG2, read-out: Cell growth inhibition (GI%); for IC50: HepG2, 48 h, read-out: Anticancer activity IC50
[4] = molecular target: T1, COX-2 (Ovis aries, UniProt P79208); assay: In vitro cyclooxygenase; assay type: biochemical, ovine; conditions: for SI (selectivity index): IC50 (COX-1)/IC50 (COX-2)
T1 sequence (P79208 17-603): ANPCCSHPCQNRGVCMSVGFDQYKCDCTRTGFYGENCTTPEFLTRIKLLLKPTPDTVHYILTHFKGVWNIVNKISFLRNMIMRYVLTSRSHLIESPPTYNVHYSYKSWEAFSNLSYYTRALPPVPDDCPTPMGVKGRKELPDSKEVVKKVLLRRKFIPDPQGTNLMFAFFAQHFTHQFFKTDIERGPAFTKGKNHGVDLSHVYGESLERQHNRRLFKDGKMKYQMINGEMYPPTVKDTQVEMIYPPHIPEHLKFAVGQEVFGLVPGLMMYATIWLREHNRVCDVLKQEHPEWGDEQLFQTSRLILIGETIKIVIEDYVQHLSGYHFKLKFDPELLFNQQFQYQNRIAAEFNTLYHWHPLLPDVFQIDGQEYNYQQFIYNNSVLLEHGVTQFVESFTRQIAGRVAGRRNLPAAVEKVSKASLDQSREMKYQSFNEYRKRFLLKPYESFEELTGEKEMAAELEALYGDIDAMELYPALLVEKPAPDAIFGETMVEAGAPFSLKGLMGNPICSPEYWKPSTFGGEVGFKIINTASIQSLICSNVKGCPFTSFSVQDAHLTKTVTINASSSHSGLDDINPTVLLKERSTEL

[5] = test system: MCF-7, HepG2 and HCT-116 cancer cell lines; assay: MTT assay, statements over the three cancer cell lines together; assay type: cell-based; conditions: for IC50: read-out: Anticancer activity IC50 against the three cancer cell lines; for inhibition at 10 µM: read-out: Growth inhibition against the three cancer cell lines
[6] = molecular target: T2, COX-1 (Ovis aries, UniProt P05979); assay: In vitro cyclooxygenase; assay type: biochemical, ovine
T2 sequence (P05979 25-600): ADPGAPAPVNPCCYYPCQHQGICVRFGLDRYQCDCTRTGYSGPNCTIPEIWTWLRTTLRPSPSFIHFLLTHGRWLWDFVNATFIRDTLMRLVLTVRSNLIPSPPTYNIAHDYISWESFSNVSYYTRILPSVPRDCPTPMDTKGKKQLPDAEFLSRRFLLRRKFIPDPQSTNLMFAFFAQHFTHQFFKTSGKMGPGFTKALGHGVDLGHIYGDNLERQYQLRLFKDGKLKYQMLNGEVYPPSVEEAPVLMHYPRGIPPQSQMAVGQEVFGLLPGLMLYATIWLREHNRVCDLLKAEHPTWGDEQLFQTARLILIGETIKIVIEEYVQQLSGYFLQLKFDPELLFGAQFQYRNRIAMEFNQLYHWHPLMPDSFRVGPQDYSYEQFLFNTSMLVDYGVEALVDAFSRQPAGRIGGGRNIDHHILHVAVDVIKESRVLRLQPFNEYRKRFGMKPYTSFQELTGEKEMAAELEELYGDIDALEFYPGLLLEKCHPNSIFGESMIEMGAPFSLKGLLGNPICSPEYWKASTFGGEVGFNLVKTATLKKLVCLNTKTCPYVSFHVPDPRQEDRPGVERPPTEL

[7] = molecular target: EGFR (Homo sapiens, UniProt P00533); assay: In vitro EGFR-TK inhibition assay; assay type: biochemical
EGFR, sequence (P00533 25-1210): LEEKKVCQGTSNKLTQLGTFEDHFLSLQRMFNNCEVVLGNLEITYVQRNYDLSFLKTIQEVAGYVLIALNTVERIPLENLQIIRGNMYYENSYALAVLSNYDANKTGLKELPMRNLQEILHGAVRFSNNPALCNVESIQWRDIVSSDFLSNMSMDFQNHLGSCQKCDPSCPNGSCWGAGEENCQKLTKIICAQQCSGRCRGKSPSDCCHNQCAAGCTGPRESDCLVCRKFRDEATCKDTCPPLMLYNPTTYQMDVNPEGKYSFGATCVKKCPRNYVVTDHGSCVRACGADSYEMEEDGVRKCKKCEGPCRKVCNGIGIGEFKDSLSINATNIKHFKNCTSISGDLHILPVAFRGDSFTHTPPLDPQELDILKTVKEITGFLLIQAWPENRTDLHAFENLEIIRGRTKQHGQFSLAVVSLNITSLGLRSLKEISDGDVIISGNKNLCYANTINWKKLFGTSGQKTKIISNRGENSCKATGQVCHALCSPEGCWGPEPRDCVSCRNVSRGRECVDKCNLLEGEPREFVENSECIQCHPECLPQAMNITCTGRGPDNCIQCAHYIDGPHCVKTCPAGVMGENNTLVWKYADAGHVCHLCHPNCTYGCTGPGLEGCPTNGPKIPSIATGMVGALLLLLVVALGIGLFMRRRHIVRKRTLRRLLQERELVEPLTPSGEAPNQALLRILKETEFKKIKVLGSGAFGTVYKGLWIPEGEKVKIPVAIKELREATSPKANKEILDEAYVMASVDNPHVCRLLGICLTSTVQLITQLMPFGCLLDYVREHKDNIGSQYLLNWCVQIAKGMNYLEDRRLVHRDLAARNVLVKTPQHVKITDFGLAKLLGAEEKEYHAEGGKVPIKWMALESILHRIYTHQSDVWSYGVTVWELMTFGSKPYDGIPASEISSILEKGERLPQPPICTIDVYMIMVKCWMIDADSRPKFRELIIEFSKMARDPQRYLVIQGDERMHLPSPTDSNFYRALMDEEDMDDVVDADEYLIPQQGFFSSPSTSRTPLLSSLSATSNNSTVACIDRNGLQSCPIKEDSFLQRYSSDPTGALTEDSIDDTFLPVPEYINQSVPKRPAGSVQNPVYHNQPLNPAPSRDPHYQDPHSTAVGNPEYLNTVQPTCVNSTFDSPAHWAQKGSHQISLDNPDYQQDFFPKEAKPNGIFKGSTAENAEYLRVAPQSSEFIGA

SMILES	inhibition at 10 µM [1] [%]	inhibition at 10 µM [2] [%]	inhibition at 10 µM [3] [%]	IC50 [1] [µM]	IC50 [4] [µM]	SI (selectivity index) [4]	IC50 [5] [µM]	IC50 [2] [µM]	IC50 [3] [µM]	IC50 [6] [µM]	inhibition at 10 µM [5] [%]	IC50 [7] [µM]
Cn1c(=O)c(C(=O)NN=Cc2ccccc2)nc2ccccc21 [Compound 2a, N′-benzylidene-4-methyl-3-oxo-3,4-dihydroquinoxaline-2-carbohydrazide]	82.85 ± 0.49	69.25 ± 0.45	89.21 ± 0.63									
Cn1c(=O)c(C(=O)N/N=C/c2ccc(Cl)cc2)nc2ccccc21 [Compound 2b, (E)-N′-(4-chlorobenzylidene)-4-methyl-3-oxo-3,4-dihydroquinoxaline-2-carbohydrazide]	95.5 ± 1.25	88.68 ± 0.52	90.76 ± 0.29	15.98 ± 0.06	5.26 ± 0.49	0.84	> 10	16.3 ± 0.24	12.41 ± 0.05	4.42 ± 1.67		
Cn1c(=O)c(C(=O)NN=Cc2ccc(O)cc2)nc2ccccc21 [Compound 2c, N′-(4-hydroxybenzylidene)-4-methyl-3-oxo-3,4-dihydroquinoxaline-2-carbohydrazide]	69.72 ± 0.46	61.92 ± 0.55	77.95 ± 0.56								≥ 88.7	
Cn1c(=O)c(C(=O)N/N=C/c2ccc3c(c2)OCO3)nc2ccccc21 [Compound 2d, (E)-N′-(benzo[d][1,3]dioxol-5-ylmethylene)-4-methyl-3-oxo-3,4-dihydroquinoxaline-2-carbohydrazide]	50.14 ± 0.46	59.5 ± 0.78	56.95 ± 0.35									
Cn1c(=O)c(C(=O)N/N=C2\C(=O)Nc3ccccc32)nc2ccccc21 [Compound 4a, (Z)-4-Methyl-3-oxo-N′-(2-oxoindolin-3-ylidene)-3,4-dihydroquinoxaline-2-carbohydrazide]	90.14 ± 0.76	92.79 ± 0.15	91.82 ± 0.35	4.42 ± 0.12	1.17 ± 0.15	24.61	3.21 to 4.54	4.54 ± 0.19	4.23 ± 0.09	28.8 ± 1.02	≥ 88.7	0.3 ± 0.01
CN1C(=O)/C(=N\NC(=O)c2nc3ccccc3n(C)c2=O)c2ccccc21 [Compound 4b, (Z)-4-Methyl-N′-(1-methyl-2-oxoindolin-3-ylidene)-3-oxo-3,4-dihydroquinoxaline-2-carbohydrazide]	61.47 ± 0.37	59.46 ± 0.27	52.4 ± 0.74									
C/C(=N\NC(=O)c1nc2ccccc2n(C)c1=O)c1cc2ccccc2oc1=O [Compound 5, (E)-4-Methyl-3-oxo-N′-(1-(2-oxo-2H-chromen-3-yl)ethylidene)-3,4-dihydroquinoxaline-2-carbohydrazide]	91.47 ± 0.25	93.75 ± 0.29	90.79 ± 0.21	3.21 ± 0.1	0.83 ± 0.4	48.58	3.21 to 4.54	3.46 ± 0.15	3.62 ± 0.21	40.3 ± 3.35	≥ 88.7	0.9 ± 0.01
Cn1c(=O)c(C(=O)N/N=C/C(O)C(O)C(O)CO)nc2ccccc21 (stereo not drawn) [Compound 6, (E)-4-Methyl-3-oxo-N′-(2,3,4,5-tetrahydroxypentylidene)-3,4-dihydroquinoxaline-2-carbohydrazide]	10.8 ± 0.76	41.8 ± 1.27	21.4 ± 0.52									
Cn1c(=O)c(C(=O)N/N=C/C(O)C(O)C(O)C(O)CO)nc2ccccc21 (stereo not drawn) [Compound 7, (E)-4-Methyl-3-oxo-N′-(2,3,4,5,6-pentahydroxyhexylidene)-3,4-dihydroquinoxaline-2-carbohydrazide]	10.3 ± 0.48	33.9 ± 1.27	26.4 ± 0.83									
CC(=O)C/C(=N/NC(=O)c1nc2ccccc2n(C)c1=O)c1ccccc1 [Compound 9, (Z)-4-methyl-3-oxo-N′-(3-oxo-1-phenylbutylidene)-3,4-dihydroquinoxaline-2-carbohydrazide]	92.97 ± 0.54	97.89 ± 0.69	96.83 ± 0.29	6.84 ± 0.07	2.21 ± 0.14	17.52		8.75 ± 0.25	5.54 ± 0.27	38.7 ± 1.27	≥ 88.7	
CN1c2ccccc2N=C(C(=O)NN)C1N=N (stereo not drawn) [Compound 10, 3-Diazenyl-4-methyl-3,4-dihydroquinoxaline-2-carbohydrazide]	49.8 ± 0.86	86.6 ± 1.31	52.4 ± 0.69									
Cn1c(=O)c(C(=O)NNC(=O)CC(=O)c2ccccc2)nc2ccccc21 [Compound 11, 4-Methyl-3-oxo-N′-(3-oxo-3-phenylpropanoyl)-3,4-dihydroquinoxaline-2-carbohydrazide]	92.57 ± 0.43	97.63 ± 0.16	92.78 ± 0.38	2.91 ± 0.23	0.62 ± 0.07	61.23	0.81 to 2.91	2.38 ± 0.26	2.41 ± 0.07	38 ± 0.66	≥ 88.7	0.6 ± 0.04
Cc1cc(C)n(C(=O)c2nc3ccccc3n(C)c2=O)n1 [Compound 12, 3-(3,5-Dimethyl-1H-pyrazole-1-carbonyl)-1-methylquinoxalin-2(1H)-one]	33.5 ± 0.82	49.2 ± 1.23	53.8 ± 1.38									
Cn1c(=O)c(C(=O)NNC(=S)Nc2ccccc2)nc2ccccc21 [Compound 13, 2-(4-Methyl-3-oxo-3,4-dihydroquinoxaline-2-carbonyl)-N-phenylhydrazine-carbothioamide]	95.39 ± 0.27	97.87 ± 0.19	96.75 ± 0.29	0.81 ± 0.13	0.46 ± 0.06	66.11	0.81 to 2.91	1.12 ± 0.19	0.96 ± 0.09	30.4 ± 1.63	≥ 88.7	0.4 ± 0.02
Cn1c(=O)c(-c2nnco2)nc2ccccc21 [Compound 14, 1-Methyl-3-(1,3,4-oxadiazol-2-yl)quinoxalin-2(1H)-one]	29.3 ± 0.63	33.3 ± 1.32	25.7 ± 1.67									
Cn1c(=O)c(-c2n[nH]c(=S)o2)nc2ccccc21 [Compound 15, 1-Methyl-3-(5-thioxo-4,5-dihydro-1,3,4-oxadiazol-2-yl)quinoxalin-2(1H)-one]	43.5 ± 0.63	76.3 ± 1.22	59.5 ± 1.92									
COc1cccc2c1C(=O)c1c(O)c3c(c(O)c1C2=O)C[C@@](O)(C(=O)CO)C[C@@H]3O[C@H]1C[C@H](N)[C@H](O)[C@H](C)O1 [Doxorubicin, doxorubicin, reference compound]				0.9 ± 0.02				0.51 ± 0.03	1.21 ± 0.08			
